Our source for the IC50 values is patent publication US20230391778A1, “INDOLIN-2-ONE OR PYRROLO -PYRIDIN -2 -ONE DERIVATIVES” (Hoffmann-La Roche Inc., priority 2014, published 2023).

pIC50: −log10 of the molar value. Structures can show the parent of a compound that is named as a salt.

This assay concerns the target T1, mouse ENT-1 transporter (Mus musculus, UniProt Q9JIM1).
T1 construct: expressed in transfected cells
T1 sequence (Q9JIM1 1-460): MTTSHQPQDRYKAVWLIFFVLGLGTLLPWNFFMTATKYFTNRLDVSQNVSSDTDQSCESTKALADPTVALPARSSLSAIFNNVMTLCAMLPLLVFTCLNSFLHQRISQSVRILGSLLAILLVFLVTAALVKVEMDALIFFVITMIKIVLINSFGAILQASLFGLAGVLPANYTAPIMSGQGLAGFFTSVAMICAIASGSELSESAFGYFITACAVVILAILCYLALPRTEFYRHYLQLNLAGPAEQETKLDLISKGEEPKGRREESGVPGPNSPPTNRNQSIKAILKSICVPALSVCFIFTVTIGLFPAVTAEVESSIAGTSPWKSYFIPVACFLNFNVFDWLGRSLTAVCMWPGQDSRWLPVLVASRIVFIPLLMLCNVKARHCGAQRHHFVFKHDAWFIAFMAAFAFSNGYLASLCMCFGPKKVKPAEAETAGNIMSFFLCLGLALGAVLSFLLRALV
Kind of assay: Measure of adenosine transport activity (ENT1 adenosine uptake inhibition). In kind it is cell-based. As to conditions: stable cells expressing mouse ENT-1, [2,8-3H]-adenosine 6 nM, 20 min. On the procedure:
To measure adenosine transport activity of ENT-1 mammalian cells, stable cells expressing the mouse ENT-1 transporter were plated on day 1 in 96-well culture plates at the density of 60,000 cells/well, in complete DMEM/F12 medium supplemented with glutamax, 10% FBS and 10 μg/ml puromycin. On day 2, the medium was aspirated and the cells were washed twice with uptake buffer (10 mM Hepes-Tris, pH 7.4 containing 150 mM NaCl, 1 mM CaCl2), 2.5 mM KCl, 2.5 mM MgSO4, 10 mM D-glucose) (UB). For inhibition experiments, cells were then incubated at RT with various concentrations of compounds with 1% DMSO final. Non-specific uptake was defined in the presence of 10 μM S-(4-Nitrobenzyl)-6-thioinosine (NBTI, Sigma Cat #N2255).
The plates were then incubated for 20 min with gentle shaking and the reaction was stopped by aspiration of the mixture and washing (three times) with ice-cold UB. The cells were lysed by the addition of scintillation liquid, shaken 3 hours and the radioactivity in the cells was estimated using a microplates scintillation counter (TopCount NXT, Packard).
In general, pIC50 refers to the IC50 on a negative log10 scale, so that one unit is a factor of ten. Read a low pIC50 as a high IC50. In turn, `Cc1cnc(N2C(=O)C(C)(C)c3ccc(-c4cnc(C)nc4)cc32)cn1` [Example 57, 3,3-Dimethyl-1-(5-methylpyrazin-2-yl)-6-(2-methylpyrimidin-5-yl)indolin-2-one] gave a pIC50 of 7.57.
The value for `Cc1cncc(N2C(=O)C(C)(C)c3ccc(-c4cnc(C)nc4)cc32)c1` [Example 59, 3,3-Dimethyl-1-(5-methylpyridin-3-yl)-6-(2-methylpyrimidin-5-yl)indolin-2-one] was 6.18; that for `Cc1ccnc(N2C(=O)C(C)(C)c3ccc(-c4cnc(C)nc4)cc32)c1` [Example 60, 3,3-Dimethyl-1-(4-methylpyridin-2-yl)-6-(2-methylpyrimidin-5-yl)indolin-2-one] was 5.42.
With `Cc1cccc(N2C(=O)C(C)(C)c3ccc(-c4cnc(C)nc4)cc32)n1` [Example 61, 3,3-Dimethyl-1-(6-methylpyridin-2-yl)-6-(2-methylpyrimidin-5-yl)indolin-2-one] the figure was 6.02; with `Cc1cncc(N2C(=O)C(C)(C)c3ccc(-c4cnc(C)nc4)cc32)n1` [Example 63, 3,3-Dimethyl-1-(6-methylpyrazin-2-yl)-6-(2-methylpyrimidin-5-yl)indolin-2-one], 6.17.
For `Cc1ccnc(N2C(=O)C(C)(C)c3ccc(-c4cnc(C)nc4)cc32)n1` [Example 64, 3,3-Dimethyl-1-(4-methylpyrimidin-2-yl)-6-(2-methylpyrimidin-5-yl)indolin-2-one], the pIC50 is 5.29.
The value for `Cc1ncc(-c2ccc3c(c2)N(c2cn(C)c(C)n2)C(=O)C3(C)C)cn1` [Example 65, 1-(1,2-Dimethyl-1H-imidazol-4-yl)-3,3-dimethyl-6-(2-methylpyrimidin-5-yl)indolin-2-one] was 5.17; that for `Cc1cc(N2C(=O)C(C)(C)c3ccc(-c4cnc(C)nc4)cc32)cc(C)n1` [Example 66, 1-(2,6-Dimethylpyridin-4-yl)-3,3-dimethyl-6-(2-methylpyrimidin-5-yl)indolin-2-one] was 5.94; that for `Cc1cc(C)nc(N2C(=O)C(C)(C)c3ccc(-c4cnc(C)nc4)cc32)n1` [Example 67, 1-(4,6-Dimethylpyrimidin-2-yl)-3,3-dimethyl-6-(2-methylpyrimidin-5-yl)indolin-2-one] was 5.25.
With `Cc1cc(N2C(=O)C(C)(C)c3ccc(-c4cnc(C)nc4)cc32)nc(C)n1` [Example 68, 1-(2,6-Dimethylpyrimidin-4-yl)-3,3-dimethyl-6-(2-methylpyrimidin-5-yl)indolin-2-one] the figure was 6.30; with `Cc1ncc(-c2ccc3c(c2)N(c2cc(C)c(C)cn2)C(=O)C3(C)C)cn1` [Example 69, 1-(4,5-Dimethylpyridin-2-yl)-3,3-dimethyl-6-(2-methylpyrimidin-5-yl)indolin-2-one], 5.89.
The value for `Cc1ncc(-c2ccc3c(c2)N(c2cnc(C)c(C)c2)C(=O)C3(C)C)cn1` [Example 75, 1-(5,6-dimethylpyridin-3-yl)-3,3-dimethyl-6-(2-methylpyrimidin-5-yl)indolin-2-one] was 6.08; that for `Cc1ncc(-c2ccc3c(c2)N(c2cccnn2)C(=O)C3(C)C)cn1` [Example 76, 3,3-dimethyl-6-(2-methylpyrimidin-5-yl)-1-(pyridazin-3-yl)indolin-2-one] was 5.68.
`Cc1ncc(-c2ccc3c(c2)N(c2ncccn2)C(=O)C3(C)C)cn1` [Example 79, 3,3-dimethyl-6-(2-methylpyrimidin-5-yl)-1-(pyrimidin-2-yl)indolin-2-one]: the pIC50 is 5.41.
With `Cc1ncc(-c2ccc3c(c2)N(c2cnn(C)c2)C(=O)C3(C)C)cn1` [Example 80, 3,3-dimethyl-1-(1-methyl-1H-pyrazol-4-yl)-6-(2-methylpyrimidin-5-yl)indolin-2-one] the figure was 5.82; with `Cc1ncc(-c2ccc3c(c2)N(c2cn[nH]c2)C(=O)C3(C)C)cn1` [Example 83, 3,3-dimethyl-6-(2-methylpyrimidin-5-yl)-1-(1H-pyrazol-4-yl)indolin-2-one], 5.33.
With `Cc1ncc(-c2ccc3c(c2)N(c2cncnc2C)C(=O)C3(C)C)cn1` [Example 84, 3,3-dimethyl-6-(2-methylpyrimidin-5-yl)-1-(4-methylpyrimidin-5-yl)indolin-2-one], the pIC50 was 4.81.
With `Cc1ncc(-c2ccc3c(c2)N(c2c[nH]cn2)C(=O)C3(C)C)cn1` [Example 85, 1-(1H-imidazol-4-yl)-3,3-dimethyl-6-(2-methylpyrimidin-5-yl)indolin-2-one] the figure was 5.28; with `Cc1cc(N2C(=O)C(C)(C)c3ccc(-c4cnc(C)nc4)cc32)[nH]n1` [Example 86, 3,3-dimethyl-1-(3-methyl-1H-pyrazol-5-yl)-6-(2-methylpyrimidin-5-yl)indolin-2-one hydrochloride], 6.37; with `Cc1ncc(-c2ccc3c(c2)N(c2cn(C)nn2)C(=O)C3(C)C)cn1` [Example 87, 3,3-dimethyl-1-(1-methyl-1H-1,2,3-triazol-4-yl)-6-(2-methylpyrimidin-5-yl)indolin-2-one], 5.68.
The value for `Cc1ncc(-c2ccc3c(c2)N(c2ncc(C)[nH]2)C(=O)C3(C)C)cn1` [Example 88, 3,3-dimethyl-1-(4-methyl-1H-imidazol-2-yl)-6-(2-methylpyrimidin-5-yl)indolin-2-one] was 5.12; that for `Cc1ncc(-c2ccc3c(c2)N(c2ncc[nH]2)C(=O)C3(C)C)cn1` [Example 92, 1-(1H-imidazol-2-yl)-3,3-dimethyl-6-(2-methylpyrimidin-5-yl)indolin-2-one] was 5.89; that for `CCn1ccc(N2C(=O)C(C)(C)c3ccc(-c4cnc(C)nc4)cc32)n1` [Example 94, 1-(1-ethyl-1H-pyrazol-3-yl)-3,3-dimethyl-6-(2-methylpyrimidin-5-yl)indolin-2-one] was 5.93.
With `Cc1ncc(-c2ccc3c(c2)N(c2cnc(C#N)cn2)C(=O)C3(C)C)cn1` [Example 96, 5-(3,3-dimethyl-6-(2-methylpyrimidin-5-yl)-2-oxoindolin-1-yl)pyrazine-2-carbonitrile] the figure was 6.81.
In turn, `Cc1ncc(-c2ccc3c(c2)N(c2cnccc2C)C(=O)C3(C)C)cn1` [Example 99, 3,3-dimethyl-1-(4-methylpyridin-3-yl)-6-(2-methylpyrimidin-5-yl)indolin-2-one] gave a pIC50 of 5.36.
Regarding `Cc1ncc(-c2ccc3c(c2)N(c2cnc(CO)nc2)C(=O)C3(C)C)cn1` [Example 102, 1-(2-(hydroxymethyl)pyrimidin-5-yl)-3,3-dimethyl-6-(2-methylpyrimidin-5-yl)indolin-2-one], the pIC50 is 4.99.
For the molecule `Cc1ncc(-c2ccc3c(c2)N(c2cnc(CN)nc2)C(=O)C3(C)C)cn1` [Example 103, 1-[2-(aminomethyl)pyrimidin-5-yl]-3,3-dimethyl-6-(2-methylpyrimidin-5-yl)indol-2-one], the negative-log IC50 (pIC50) was 4.74.
The value for `Cc1ncc(-c2ccc3c(c2)N(c2nnn(C)n2)C(=O)C3(C)C)cn1` [Example 105, 3,3-dimethyl-1-(2-methyl-2H-tetrazol-5-yl)-6-(2-methylpyrimidin-5-yl)indolin-2-one] was 5.16; that for `Cc1ncc(-c2ccc3c(c2)N(c2ccc(C)[n+]([O-])n2)C(=O)C3(C)C)c[n+]1[O-]` [Example 107, 3-(3,3-dimethyl-6-(2-methyl-1-oxidopyrimidin-5-yl)-2-oxoindolin-1-yl)-6-methylpyridazine 1-oxide] was 5.66.
The value for `Cc1ncc(-c2ccc3c(c2)N(c2cnc(CF)nc2)C(=O)C3(C)C)cn1` [Example 108, 1-(2-(fluoromethyl)pyrimidin-5-yl)-3,3-dimethyl-6-(2-methylpyrimidin-5-yl)indolin-2-one] was 5.72; that for `Cc1ncc(-c2ccc3c(c2)N(c2cnc(Cl)nc2)C(=O)C3(C)C)cn1` [Example 114, 1-(2-chloropyrimidin-5-yl)-3,3-dimethyl-6-(2-methylpyrimidin-5-yl)indolin-2-one] was 6.34.
The value for `Cc1ncc(-c2ccc3c(c2)N(c2cc(Cl)nc(Cl)c2)C(=O)C3(C)C)cn1` [Example 115, 1-(2,6-dichloropyridin-4-yl)-3,3-dimethyl-6-(2-methylpyrimidin-5-yl)indolin-2-one] was 6.84; that for `Cc1ncc(-c2ccc3c(c2)N(c2cnc(Cl)cn2)C(=O)C3(C)C)cn1` [Example 117, 1-(5-chloropyrazin-2-yl)-3,3-dimethyl-6-(2-methylpyrimidin-5-yl)indol-2-one] was 7.46.
The molecule `Cc1cc(N2C(=O)C(C)(C)c3ccc(-c4cnc(C)nc4)cc32)cc(Cl)n1` [Example 119, 1-(2-chloro-6-methylpyridin-4-yl)-3,3-dimethyl-6-(2-methylpyrimidin-5-yl)indolin-2-one] had a negative logarithm of the IC50 (pIC50) of 6.47.
